In US20220248614A1, “METHOD FOR ELIMINATING PATHOGENS IN PLANT GROWING AND CORRESPONDING SYSTEM” (priority 2019, published 2022):
“Also recorded” adds a separate entry of the source.

Legend:
cucumber = test: Tolerance of cucumber plants (leaves, roots) to ozone water; format: in vivo
Description: Mildewed cucumber leaves were collected from a garden adjacent to the research unit with which 6 outdoor cucumber seedlings were infected. After the verification of the manifestation of an infection, 18 new seedlings were grown up to the stage of the first plant leaf, at which point the plants were divided in onion boxes into 3 groups in the middle of each of which 2 ill plants were placed. The control plants were sprayed three times a week with water. The second test group was sprayed three times a day with ozone water (800 ppb) and the third test group was sprayed mornings and evenings. The sprayings were carried out with large droplets, which remained on the surface of the plant 2-4 hours. At night, the plants were covered with a monochrome plastic in order to maintain a high humidity. The sprayings took place over 6 weeks.
(§1) While the preliminary test was still underway, 20 cucumber seedlings were grown to the stage of a single leaf, the seedlings then being divided up into 5 boxes. The test groups were • 1. entirely untreated • 2. water spraying three times a week and watering of pot with ozone water for 3 and for 2 weeks before the conclusion of the test • 3. ozone spraying 3 three times a week • 4. ozone spraying 5 times a week at 7 a.m. and 4 p.m. • 5. ozone spraying 5 times a week at 7 a.m., 12 p.m. and 4 p.m.

[1] = tested on: Grey mould (Botrytis cinerea); test: Grey mould test 2: almost dry old fungal growth rinsed into ozone water; format: cell-based
Description: A petri dish, (a CMA plate, in which cabbage discs stimulate the formation of conidia), comprising the almost dry old fungal growth and the endophytic bacteria from the cabbage therein), grey mould spores were rinsed into 100 ml of water. 1 and 10 ml of this water were pipetted into 100 ml of water and 100 ml of ozone water. 0.5 ml of each of these water mixtures was pipetted into 3 petri dishes in order to determine the vitality of the grey mould.

Pythium ultimum = Pythium ultimum test 1: fungal culture soaked with ozone water; format: cell-based
Description: In a first dish, a fungal culture was soaked for 30 minutes with sterile water when the Pythium fungus had grown to a distance of approx. 2 cm away from the small piece of inoculating agar at the rim of the dish, which was removed with a large cork borer before the water treatment. The fungus grew to fill the dish within 16 hours during the water treatment. In a second dish, an identical treatment with ozone water (800 ppb) was carried out. A thicker fungal mycelium was visible in the Pythium culture around the site of inoculation, from which the fungus only had time to grow 2 cm before the ozone treatment. The ozone destroyed the youngest tips of the hyphae of the fungus and the hyphae that had grown apart from the agar, but had no effect on hyphae that had already grown partially into the agar.

Fusarium oxysporum = Fusarium oxysporum test 1: fungal suspension in ozone water, plated on PDA; format: cell-based; settings: for culture colonies in the plate: 10 minutes
Description: A plateful of F. oxyxsporum fungus without agar was homogenized with 100 ml of water. 10 ml and 1 ml of the fungal suspension were added to 100 ml of sterile water and 100 ml of 800 ppb ozone water. After 10 minutes, the inoculums from each treatment were placed in 3 PDA plates.

cucumber powdery mildew = test: Actual test, control of cucumber powdery mildew (April-May 2019); format: in vivo, Erysiphe sp.
Description: as §1
The test area, in which mesh-bottomed pots were planted in peat with 4 pots in each box, was surrounded with the sick seedlings of the preliminary test, which were at a distance of approx. 60 cm from the test plants.

crops = settings: 80-100 ppb in the air; cited from earlier work
powdery mildew = test: Control of powdery mildew infection by gaseous ozone or ozone solution; format: in vivo; settings: ozone in gaseous form, constant exposure
Description: The spores of powdery mildew have an exceptionally high moisture content compared to the spores of other fungal diseases, which is why merely a very high air humidity suffices for a spore infection, yet the conidium is destroyed quickly when engulfed by a water droplet. The spores of the fungus spread during the day and make the plant ill at night. Depending on the species of the powdery mildew, the infection stage takes 6-12 hours. […] Using this knowledge, it is possible to construct technical applications for implementation in greenhouses as well as outdoors for the control of powdery mildew disease infections. Based on this solution, many other plant pests which spread first to the surfaces of the plants as dry spores that have acclimated to the shining of the sun during their evolution (for example grey mould) can also be controlled.

[2] = tested on: Grey mould (Botrytis cinerea); test: Grey mould test 1: spores rinsed from cabbage in ozone water, plated on PDA; format: cell-based; settings: taken from wet cabbage / grown at very high humidity
Description: Grey mould spores rinsed from cabbage were homogenized in approximately 200 ml of water. 10 ml and 1 ml of this fungal suspension were added to 100 ml of water and 100 ml of ozone water (800 ppb). After 10 and 60 minutes, specimens from each treatment were placed into 3 PDA plates.

grey mould = test: Grey mould test series on surfaces (wet versus dried fungus); format: cell-based, Botrytis cinerea; settings: ozone 2500 ppb in the air; grey mould washed from rotting cabbage, sprayed on cabbage, plastic, glass, redcurrant branch
Text: Grey mould turns out to be surprising against ozone. […] When test set-ups yielded the same result the following year, in which grey mould spores and the associated mycelium fragments washed from the surface of moist, rotting cabbage survived on a plastic surface in an ozone spray and in a concentrated ozone solution, it was completely clear that the surfaces of the mycelium and spores of grey mould are completely resistant to ozone. […] In nature, grey mould survives until the following year on the surfaces of rotten plants such as berries and succulent leaves, where they form conidia in conidiophores in moist conditions. In wet conditions, the spores hardly spread with the wind; however, once dried by the sun, the spores of the growth break free to be carried a distance of at least 50 metres by the wind if the wind speed exceeds 2 m/s. Dried mycelium and conidiophores are readily identifiable under a microscope by their structure compared with completely turgid growths.

O=[O+][O-] [ozone]
state of roots compared with the untreated test group (cucumber; actual test): undamaged | damage to the leaves of the plants (cucumber; actual test, ozone sprayings, any stage): did not damage the leaves | impact on development of fresh weight (cucumber; actual test, watering of the roots with ozone water): did not have an impact | damage to the root system of cucumber or weakening of the plant (cucumber; approximately 800 ppb in the water, stem bottoms watered twice a week, evaluated a week after last treatment, preliminary tests): did not cause any damage | sensitivity of dried grey mould mycelium and spores [1]: sensitive | sensitivity of Pythium fungus (mycelium, zoospores) (Pythium ultimum): sensitive | culture colonies in the plate (Fusarium oxysporum; 1 ml of inoculum in 100 ml of 800 ppb ozone water): 1-3 colonies | culture colonies in the plate (Fusarium oxysporum; 10 ml of inoculum in 100 ml of 800 ppb ozone water): 8-17 colonies | sensitivity of spores (conidia) and mycelium of Fusarium fungus (Fusarium oxysporum; in a solution and in sprays on surfaces of dry materials): completely sensitive | sensitivity of spores (conidia) of powdery mildew (cucumber powdery mildew; in vivo): extremely sensitive | survival of powdery mildew mycelium growing on the surface of the plant (cucumber powdery mildew; ozone concentration of the spraying 340 ppb): survives | effect of constant exposure on leaves (crops): causes chlorosis in leaves | effect on powdery mildew infection (powdery mildew): satisfactory effect | sensitivity of grey mould mycelium and spores grown wet [2]: ozone-resistant; also recorded: completely tolerant | killing of spores and mycelium of grey mould (grey mould): not able to kill off
